Several values for one entry are separate records, joined by “and”; a condition that tells them apart may be missing. Equal values may be shown once.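 Exposure lasted 48 hours, with cells grown in 96-well plates and compounds tested at five concentrations. GI50 = concentration required for 50% inhibition of growth. Definition used: TGI = concentration required for complete inhibition of growth.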
How the values were obtained:
Test in all cases: NCI-60 cell line screen, 48 h
TK-10 renal = test system: TK-10 renal
SNB-75 CNS = test system: SNB-75 CNS
UACC-62 melanoma = test system: UACC-62 melanoma
RPMI-8226 leukemia = test system: RPMI-8226 leukemia
RXF 393 renal = test system: RXF 393 renal
M14 melanoma = test system: M14 melanoma
SF-295 CNS = test system: SF-295 CNS
HL-60(TB) leukemia = test system: HL-60(TB) leukemia
SF-539 CNS = test system: SF-539 CNS
EKVX NSCLC = test system: EKVX NSCLC
COLO 205 colon = test system: COLO 205 colon
NCI-H226 lung = test system: NCI-H226 lung
HCT-116 colon = test system: HCT-116 colon
SK-MEL-5 melanoma = test system: SK-MEL-5 melanoma
SN12C renal = test system: SN12C renal
U251 CNS = test system: U251 CNS
SF-268 CNS = test system: SF-268 CNS
SNB-19 CNS = test system: SNB-19 CNS
HS 578T breast = test system: HS 578T breast

| SMILES | TGI (TK-10 renal) | TGI (SNB-75 CNS) | TGI (UACC-62 melanoma) | TGI (RPMI-8226 leukemia) | TGI (RXF 393 renal) | TGI (M14 melanoma) | TGI (SF-295 CNS) | TGI (HL-60(TB) leukemia) | TGI (SF-539 CNS) | TGI (EKVX NSCLC) | TGI (COLO 205 colon) | TGI (NCI-H226 lung) | TGI (HCT-116 colon) | TGI (SK-MEL-5 melanoma) | TGI (SN12C renal) | TGI (U251 CNS) | TGI (SF-268 CNS) | TGI (SNB-19 CNS) | TGI (HS 578T breast) | GI50 (RXF 393 renal) |
| --- | --- | --- | --- | --- | --- | --- | --- | --- | --- | --- | --- | --- | --- | --- | --- | --- | --- | --- | --- | --- |
| N#Cc1c(-c2ccc(Cl)cc2)c(C#N)c(=O)n(NS(=O)(=O)c2ccccc2)c1S | 70.6 µM | > 100 µM | 58.3 µM | 75.6 µM | > 100 µM | > 100 µM | > 100 µM | 60 µM | 42.1 µM | > 100 µM | > 100 µM | 77.1 µM | 91.2 µM | 33.3 µM | 78 µM | 71.9 µM | – | – | – | – |
| O=C(c1ccco1)n1c2ccc(Br)cc2c2nc3ccccc3nc21 | > 100 µM | 58.6 µM | > 100 µM | 54.6 µM | > 100 µM | > 100 µM | > 100 µM | > 100 µM | > 100 µM | > 100 µM | > 100 µM | > 100 µM | > 100 µM | > 100 µM | > 100 µM | > 100 µM | > 100 µM | > 100 µM | – | – |
| N#CCC(=O)c1cc(OCc2cc(OCc3ccc(Br)cc3)cc(OCc3ccc(Br)cc3)c2)cc(OCc2cc(OCc3ccc(Br)cc3)cc(OCc3ccc(Br)cc3)c2)c1 | > 100 µM | > 100 µM | > 100 µM | > 100 µM | – | > 100 µM | > 100 µM | – | – | > 100 µM | > 100 µM | > 100 µM | > 100 µM | > 100 µM | > 100 µM | > 100 µM | > 100 µM | > 100 µM | – | – |
| COC(=O)C1CC=C(SC(=O)c2ccccc2)N1C(=O)c1ccccc1 (configuration not stated) | > 100 µM | > 100 µM | > 100 µM | > 100 µM | > 100 µM | > 100 µM | > 100 µM | – | – | > 100 µM | > 100 µM | – | > 100 µM | > 100 µM | – | > 100 µM | > 100 µM | > 100 µM | > 100 µM | – |
| COC(=O)C1=C(C(=O)OC)C2C(C)=CC(C)=CN2C(C#N)=C(SC)S1 (configuration not stated) | 69.8 µM | > 100 µM | – | 64.1 µM | 30.6 µM | 35.2 µM | > 100 µM | 42.7 µM | 61.4 µM | 64.9 µM | 34.4 µM | 39.9 µM | 29.6 µM | 30.7 µM | 52.6 µM | > 100 µM | 56.8 µM | > 100 µM | – | – |
| CC1(C)C2CCC(N)(C2)C1N (configuration not stated) | > 100 µM | > 100 µM | > 100 µM | > 100 µM | > 100 µM | > 100 µM | > 100 µM | > 100 µM | – | > 100 µM | > 100 µM | > 100 µM | > 100 µM | > 100 µM | > 100 µM | > 100 µM | – | > 100 µM | – | – |
| CCn1c2ccccc2c2ccc3c(c21)C(=O)c1ccccc1C3=O | – | > 100 µM | > 100 µM | > 100 µM | > 100 µM | > 100 µM | > 100 µM | > 100 µM | > 100 µM | > 100 µM | > 100 µM | > 100 µM | > 100 µM | > 100 µM | > 100 µM | > 100 µM | > 100 µM | > 100 µM | – | – |
| COc1cc(NCc2ccc3nc(-c4ccccc4)c(N)nc3c2)cc(OC)c1OC | > 100 µM | 73.5 µM | 72.6 µM | – | 58.9 µM | 37.8 µM | 92.7 µM | 49.7 µM | 91.4 µM | > 100 µM | 38.6 µM | > 100 µM | 33.7 µM | 28.9 µM | > 100 µM | > 100 µM | 98.6 µM | > 100 µM | – | – |
| COP(=O)(OC)C(=NCc1ccccc1)NNc1ccc([N+](=O)[O-])cc1 | > 100 µM | 37.6 µM | > 100 µM | 57.1 µM | – | 53.7 µM | 67.4 µM | 46 µM | 44.7 µM | – | > 100 µM | – | 69 µM | 34.8 µM | – | 66.9 µM | 84.9 µM | – | – | – |
| COc1c(OC)c(N)c2cc(C)c(=O)c(C)cc2c1N | > 100 µM | > 100 µM | > 100 µM | > 100 µM | > 100 µM | > 100 µM | > 100 µM | > 100 µM | > 100 µM | > 100 µM | > 100 µM | – | > 100 µM | > 100 µM | > 100 µM | > 100 µM | > 100 µM | > 100 µM | – | – |
| CCN1CN(c2ccccc2)C2(CCN(CCCSc3ccc(F)cc3)CC2)C1=O | 26.3 µM | 30.1 µM | 30.2 µM | 46.8 µM | 25.7 µM | 21.6 µM | 25.7 µM | 26.6 µM | 21.5 µM | 21.2 µM | 6.48 µM | 33.7 µM | 14.9 µM | 13.8 µM | 20.5 µM | – | 28.3 µM | 24.3 µM | – | – |
| O=C(O)C12C3C4C1C1C2C3C1(Br)C41OCCO1 (configuration not stated) | > 100 µM | > 100 µM | – | > 100 µM | > 100 µM | – | > 100 µM | > 100 µM | > 100 µM | > 100 µM | > 100 µM | – | > 100 µM | > 100 µM | – | > 100 µM | > 100 µM | > 100 µM | – | – |
| COc1cc(C2c3cc4c(cc3[C@@H](NCCN3CCCCC3)C3COC(=O)[C@H]23)OCO4)cc(OC)c1O (some centres not stated) | 5.34 µM and 5.88 µM | 2.9 µM | 1.73 µM and 1.79 µM | 5.69 µM and 3.93 µM | 1.98 µM and 4.14 µM | 1.44 µM and 2 µM | 0.881 µM | 0.402 µM and 0.36 µM | 0.842 µM and 0.896 µM | 5.28 µM and 5.71 µM | > 100 µM | 0.209 µM and 0.208 µM | 10.6 µM and 14.6 µM | 1.93 µM and 2.19 µM | 5.81 µM and 5.85 µM | 1.44 µM and 1.62 µM | 6 µM and 15.8 µM | > 100 µM and 36.7 µM | – | 243 nM and 1270 nM |
| O=c1[nH]c(=O)n(COCCO)c2ccc(Br)cc12 | > 100 µM | > 100 µM | > 100 µM | – | > 100 µM | > 100 µM | > 100 µM | > 100 µM | > 100 µM | > 100 µM | > 100 µM | > 100 µM | > 100 µM | > 100 µM | > 100 µM | > 100 µM | – | > 100 µM | – | – |

From PubChem BioAssay (NCI)
